The target of one experiment is T1, HDAC6 human recombinant (Homo sapiens, UniProt Q9UBN7).
T1 construct: purchased Calbiochem 382180
T1 sequence (Q9UBN7 1-1215): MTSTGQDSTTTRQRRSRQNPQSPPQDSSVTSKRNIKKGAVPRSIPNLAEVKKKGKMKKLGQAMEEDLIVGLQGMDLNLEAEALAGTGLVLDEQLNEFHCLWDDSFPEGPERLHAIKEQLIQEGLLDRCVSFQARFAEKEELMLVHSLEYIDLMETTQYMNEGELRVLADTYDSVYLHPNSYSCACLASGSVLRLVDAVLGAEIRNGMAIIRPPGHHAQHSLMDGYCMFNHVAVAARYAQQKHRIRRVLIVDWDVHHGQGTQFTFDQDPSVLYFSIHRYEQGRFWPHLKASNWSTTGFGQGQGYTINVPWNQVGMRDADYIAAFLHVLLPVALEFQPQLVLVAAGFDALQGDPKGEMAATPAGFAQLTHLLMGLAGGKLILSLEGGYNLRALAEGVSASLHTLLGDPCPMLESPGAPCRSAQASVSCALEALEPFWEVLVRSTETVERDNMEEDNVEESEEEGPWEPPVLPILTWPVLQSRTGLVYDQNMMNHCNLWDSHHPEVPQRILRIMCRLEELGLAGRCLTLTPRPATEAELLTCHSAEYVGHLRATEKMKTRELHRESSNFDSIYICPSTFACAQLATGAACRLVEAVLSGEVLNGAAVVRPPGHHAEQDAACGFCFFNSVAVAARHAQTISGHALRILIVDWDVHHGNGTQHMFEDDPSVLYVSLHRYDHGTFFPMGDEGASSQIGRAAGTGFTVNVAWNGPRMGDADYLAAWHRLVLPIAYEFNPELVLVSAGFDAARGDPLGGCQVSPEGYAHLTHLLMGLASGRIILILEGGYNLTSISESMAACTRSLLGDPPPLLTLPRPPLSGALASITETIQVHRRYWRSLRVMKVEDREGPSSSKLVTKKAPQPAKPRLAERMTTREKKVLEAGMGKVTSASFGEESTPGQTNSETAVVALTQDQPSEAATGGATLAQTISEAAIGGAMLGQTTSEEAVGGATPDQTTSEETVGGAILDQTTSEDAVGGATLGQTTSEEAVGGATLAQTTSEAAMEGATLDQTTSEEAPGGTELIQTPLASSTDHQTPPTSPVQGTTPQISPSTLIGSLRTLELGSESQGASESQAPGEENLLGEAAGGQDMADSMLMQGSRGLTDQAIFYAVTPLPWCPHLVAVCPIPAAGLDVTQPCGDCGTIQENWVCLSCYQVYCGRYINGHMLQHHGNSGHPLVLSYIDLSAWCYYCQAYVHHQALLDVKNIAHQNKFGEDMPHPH
In words: HDAC6 enzyme inhibition, fluorimetric assay. It counts as biochemical. The note with it: for IC50: 0.1-1000 nM tested, 37° C. 60 minutes, fluorescence, read-out: HDAC6 (μM), ability to inhibit the activity of HDAC enzyme; for selectivity for HDAC1/6 enzymes (HDAC1/HDAC6): ratio of HDAC1 to HDAC6 values. Here is the method: (§1) Using a HDAC1 fluorimetric drug discovery assay kit (Enzolifesciences: BML-AK511) and a HDAC6 human recombinant (Calbiochem: 382180), the HDAC enzyme inhibitory abilities of test compounds were measured. It was treated with 100, 1000 and 10000 nM concentrations for HDAC1 assay, and 0.1, 1, 10, 100 and 1000 nM concentrations for HDAC6 assay. It was allowed to react at 37° C. for 60 minutes, and then was treated with a developer and allowed to react at 37° C. for 30 minutes, after which the fluorescence intensity (Ex 390 nm; Em 460 nm) was measured using FlexStatin3 (Molecular Device).

A further experiment concerns the target T2, HDAC1 (Homo sapiens, UniProt Q13547).
T2 construct: purchased Enzolifesciences BML-AK511
Briefly: HDAC1 enzyme inhibition, HDAC1 fluorimetric drug discovery assay kit. It counts as biochemical. The settings on record: 100-10000 nM tested, 37° C. 60 minutes, fluorescence; read-out: HDAC1 (μM), ability to inhibit the activity of HDAC enzyme. The method, then: as §1

The values below come from patent US11420950B2, “Heterocyclicalkyl derivative compounds as selective histone deacetylase inhibitors and pharmaceutical compositions comprising the same” (Chong Kun Dang Pharmaceutical Corp., priority 2015, dated 2022).

T2 sequence (Q13547 whole entry): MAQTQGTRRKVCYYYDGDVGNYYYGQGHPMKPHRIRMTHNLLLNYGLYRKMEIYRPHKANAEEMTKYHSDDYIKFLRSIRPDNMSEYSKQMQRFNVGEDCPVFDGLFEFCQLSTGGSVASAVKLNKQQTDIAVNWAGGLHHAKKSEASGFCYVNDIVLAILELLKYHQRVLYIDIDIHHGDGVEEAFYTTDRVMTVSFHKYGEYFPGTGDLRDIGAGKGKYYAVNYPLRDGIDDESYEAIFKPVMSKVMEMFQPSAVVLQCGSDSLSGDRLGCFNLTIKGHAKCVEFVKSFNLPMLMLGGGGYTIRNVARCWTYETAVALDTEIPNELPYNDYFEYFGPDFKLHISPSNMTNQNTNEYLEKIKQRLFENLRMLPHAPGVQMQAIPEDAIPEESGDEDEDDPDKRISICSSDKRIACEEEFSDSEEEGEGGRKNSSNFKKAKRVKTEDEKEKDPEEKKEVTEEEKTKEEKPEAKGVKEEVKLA

Turning to `O=C(CCCCCCNC(=O)N1CCC(C(O)(c2ccccc2)c2ccccc2)CC1)NO` [Compound 1124, N-(7-(hydroxyamino)-7-oxoheptyl)-4-(hydroxydiphenylmethyl)piperidine-1-carboxamide], at HDAC6 human recombinant, the IC50 is 0.024 µM and the “selectivity for HDAC1/6 enzymes (HDAC1/HDAC6)” value is listed as 170 fold. The IC50 at HDAC1 is 4.09 µM.
For `C[C@@H]1CN(C(c2ccccc2)c2ccccc2)C[C@H](C)N1C(=O)NCCCCCCC(=O)NO` [Compound 1188, (2S,6R)-4-benzhydryl-N-(7-(hydroxyamino)-7-oxoheptyl)-2,6-dimethylpiperazine-1-carboxyamide], the IC50 on HDAC6 human recombinant stood at 0.014 µM; on HDAC1, 1.68 µM.
In the same order, the values of `C[C@@H]1CN(C(c2ccccc2)c2ccccc2)CCN1C(=O)NCCCCCCC(=O)NO` [Compound 1189, (R)-4-benzhydryl-N-(7-(hydroxyamino)-7-oxoheptyl)-2-methylpiperazine-1-carboxamide] are 0.025 µM and 0.84 µM.
On to `C[C@H]1CN(C(c2ccccc2)c2ccccc2)CCN1C(=O)NCCCCCCC(=O)NO` [Compound 1190, (S)-4-benzhydryl-N-(7-(hydroxyamino)-7-oxoheptyl)-2-methylpiperazine-1-carboxamide], for which the IC50 on HDAC6 human recombinant amounted to 0.065 µM; on HDAC1, 1.34 µM.
As to `O=C(CCCCCCNC(=O)C1CCN(C(c2ccccc2)c2ccccc2)CC1)NO` [Compound 1209, 1-benzhydryl-N-(7-(hydroxyamino)-7-oxoheptyl)piperidine-4-carboxamide], at HDAC6 human recombinant, the IC50 came out at 0.006 µM and the “selectivity for HDAC1/6 enzymes (HDAC1/HDAC6)” value is reported as 193 fold. For the same compound, the IC50 on HDAC1 is 1.16 µM.
Turning to `O=C(CCCCCCNS(=O)(=O)N1CCC(C(O)(c2ccccc2)c2ccccc2)CC1)NO` [Compound 1210, N-hydroxy-7-((4-(hydroxydiphenylmethyl)piperidine)-1-sulfonamido)heptanamide], the figures for the IC50 on HDAC6 human recombinant and on HDAC1 were 0.07 µM and 1.19 µM, respectively.
For `CN(CCCCCCC(=O)NO)C(=O)N1CCN(C(c2ccccc2)c2ccccc2)CC1` [Compound 1213, 4-benzhydryl-N-(7-(hydroxyamino)-7-oxoheptyl)-N-methylpiperazine-1-carboxamide] the same measures were 0.044 µM and 0.704 µM.
For `O=C(CCCCCCNC(=O)N1CCC(N(c2ccccc2)c2ccccc2)CC1)NO` [Compound 1221, 4-(diphenylamino)-N-(7-(hydroxyamino)-7-oxoheptyl)piperidine-1-carboxamide] the same measures were 0.079 µM and 1.88 µM.
In the same order, the values of `O=C(CCCCCCNC(=O)N1CCN(C(c2ccccn2)c2ccccn2)CC1)NO` [Compound 1222] are 0.085 µM and 0.71 µM.
`O=C(CCCCCCNC(=O)N1CCN(C(c2ccc(F)cc2)c2ccc(F)cc2)CC1)NO` [Compound 1223]: the IC50 was 0.073 µM on HDAC6 human recombinant and 1.16 µM at HDAC1.
In the same order, the values of `O=C(CCCCCCNC(=O)N1CCN(C(c2ccc(Cl)cc2)c2ccc(Cl)cc2)CC1)NO` [Compound 1224] are 0.087 µM and 3.96 µM.
For `O=C(CCCCCCCNC(=O)N1CCN(C(c2ccccc2)c2ccccc2)CC1)NO` [Compound 1240, 4-benzhydryl-N-(8-(hydroxyamino)-8-oxoethyl)piperazine-1-carboxamide] the same measures were 0.07 µM and 0.41 µM.
For `CC(c1ccccc1)N1CCN(C(=O)NCCCCCCC(=O)NO)CC1` (stereo not drawn) [Compound 1241, N-(7-(hydroxyamino)-7-oxoheptyl)-4-(1-phenylethyl)piperazine-1-carboxamide] the same measures were 0.025 µM and 0.72 µM.
As to `CC(c1ccccc1)N1CCC(C(=O)NCCCCCCC(=O)NO)CC1` (stereo not drawn) [Compound 1243, N-(7-(hydroxyamino)-7-oxoheptyl)-1-(1-phenylethyl)piperidine-4-carboxamide], the values for the IC50 at HDAC6 human recombinant and at HDAC1 were 0.017 µM and 0.54 µM, respectively.
With `CN(CCCCCCC(=O)NO)C(=O)C1CCN(C(c2ccccc2)c2ccccc2)CC1` [Compound 1256, 1-benzhydryl-N-(7-(hydroxyamino)-7-oxoheptyl)-N-methylpiperidine-4-carboxamide], the IC50 at HDAC6 human recombinant came out at 0.038 µM; on HDAC1, 0.08 µM.
Consider `O=C(CCCCCNC(=O)N1CCN(C(c2ccccc2)c2ccccc2)CC1)NO` [Compound 1257, 4-benzhydryl-N-(6-(hydroxyamino)-6-oxohexyl)piperazine-1-carboxamide], for which the IC50 at HDAC6 human recombinant stood at 0.063 µM; on HDAC1, 0.159 µM.
In the case of `O=C(CCCCCNC(=O)C1CCN(C(c2ccccc2)c2ccccc2)CC1)NO` [Compound 1316, 1-benzhydryl-N-(6-(hydroxyamino)-6-oxohexyl)piperidine-4-carboxamide], the IC50 at HDAC6 human recombinant turned out to be 0.456 µM; on HDAC1, 0.236 µM.
For `O=C(CCCCCCCNC(=O)C1CCN(C(c2ccccc2)c2ccccc2)CC1)NO` [Compound 1317] the same measures were 0.336 µM and 0.023 µM.
For `O=C(CCCCCCNC(=O)N1CCN(C(c2ccccc2F)c2ccccc2F)CC1)NO` [Compound 1647, 4-(bis(2-fluorophenyl)methyl)-N-(7-(hydroxyamino)-7-oxoheptyl)piperazine-1-carboxamide], the IC50 on HDAC6 human recombinant amounted to 0.019 µM; on HDAC1, 0.466 µM.
For `O=C(CCCCCCNC(=O)N1CCN(C(c2cccc(F)c2)c2cccc(F)c2)CC1)NO` [Compound 1648] the same measures were 0.029 µM and 0.729 µM.
`O=C(CCCCCCNC(=O)N1CCC(C(F)(c2ccccc2)c2ccccc2)CC1)NO` [Compound 1649, 4-(fluorodiphenylmethyl)-N-(7-(hydroxyamino)-7-oxoheptyl)piperidine-1-carboxamide]: the IC50 on HDAC6 human recombinant is 0.033 µM; at HDAC1, 0.463 µM.
For `O=C(CCCCCCNC(=O)N1CCC(N(c2ccccc2)c2cccc(F)c2)CC1)NO` [Compound 1719, 4-((3-fluorophenyl)(phenyl)amino)-N-(7-(hydroxyamino)-7-oxoheptyl)piperidine-1-carboxamide] the same measures were 0.116 µM and 1.73 µM.
In the same order, the values of `O=C(CCCCCCNC(=O)N1CCC(N(c2ccccc2)c2ccc(F)cc2)CC1)NO` [Compound 1734, 4-((4-fluorophenyl)(phenyl)amino)-N-(7-(hydroxyamino)-7-oxoheptyl)piperidine-1-carboxamide] are 0.094 µM and 0.886 µM.
As to `O=C(CCCCCNC(=O)N1CC2(CCN(C(c3ccccc3)c3ccccc3)CC2)C1)NO` [Compound 1763, 7-benzhydryl-N-(6-(hydroxyamino)-6-oxohexyl)-2,7-diazaspiro[3.5]nonane-2-carboxamide], the figures for the IC50 on HDAC6 human recombinant and on HDAC1 were 0.201 µM and 0.023 µM, respectively.
In the same order, the values of `O=C(CCCCCCNC(=O)N1CC2(CCN(C(c3ccccc3)c3ccccc3)CC2)C1)NO` [Compound 1764, 7-benzhydryl-N-(7-(hydroxyamino)-7-oxoheptyl)-2,7-diazaspiro[3.5]nonane-2-carboxamide] are 0.04 µM and 0.236 µM.
In the same order, the values of “N-(7-(hydroxyamino)-7-oxoheptyl)-4-(phenyl(4-(trifluoromethyl)phenyl)amino)piperidine-1-carboxamie [Compound 1726]” are 0.228 µM and 3.7 µM.
